Measured values taken from patent US10562909B2, “Fused quadracyclic compounds, compositions and uses thereof” (Tabomedex Biosciences, LLC, priority 2016, dated 2020).

Biological target: MAPKAPK2 (Homo sapiens, UniProt P49137)
Assay: MK2 Enzymatic Assay
Assay type: biochemical
Details: 0.5 nM MAPKAPK2, 3 μM ATP, 2 μM Ser/Thr4 peptide, 23° C., values given as concentration bins
How it was run: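 Percent phosphorylation was derived from coumarin and fluorescein emissions relative to 0% and 100% phospho-peptide controls, read after a 120 min development step. Reactions used 2× stocks of 1 nM kinase, 4 μM peptide and 6 μM ATP; enzyme and peptide sat 20 min before a 120 min ATP reaction.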

Chain of MAPKAPK2 (P49137 whole entry, species assumed): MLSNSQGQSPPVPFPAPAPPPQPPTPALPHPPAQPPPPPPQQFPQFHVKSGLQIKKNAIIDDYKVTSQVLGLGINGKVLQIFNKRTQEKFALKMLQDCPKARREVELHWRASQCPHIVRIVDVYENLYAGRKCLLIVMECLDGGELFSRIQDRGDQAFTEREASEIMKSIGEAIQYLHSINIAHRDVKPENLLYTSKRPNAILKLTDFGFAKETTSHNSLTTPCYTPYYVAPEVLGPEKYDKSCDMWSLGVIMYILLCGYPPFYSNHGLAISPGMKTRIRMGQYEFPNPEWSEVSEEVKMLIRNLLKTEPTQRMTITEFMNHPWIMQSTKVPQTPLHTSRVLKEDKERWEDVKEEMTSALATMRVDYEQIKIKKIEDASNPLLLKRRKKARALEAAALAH

Row | Structure (SMILES) | IC50 [nM]
1 | CNC[C@@H]1CCN(c2ccc3c(c2)Cn2cc(-c4ccc(C#N)cc4)cc2-c2ncnn2-3)C1 [Compound 262, (S)-4-(7-(3-((methylamino)methyl)pyrrolidin-1-yl)-9H-benzo[e]pyrrolo[1,2-a][1,2,4]triazolo[5,1-c][1,4]diazepin-12-yl)benzonitrile] | < 50
2 | CNC[C@H]1CCN(c2ccc3c(c2)Cn2cc(-c4ccc(C#N)cc4)cc2-c2ncnn2-3)C1 [Compound 263, (R)-4-(7-(3-((methylamino)methyl)pyrrolidin-1-yl)-9H-benzo[e]pyrrolo[1,2-a][1,2,4]triazolo[5,1-c][1,4]diazepin-12-yl)benzonitrile] | 100 to 200
3 | CNCc1cnc2n1-c1ccc(N3CC[C@@H](N(C)C)C3)cc1Cn1cc(-c3ccc(C#N)cc3)cc1-2 [Compound 276, 4-(7-((R)-3-(dimethylamino)pyrrolidin-1-yl)-3-((methylamino)methyl)-9H-benzo[e]imidazo[2,1-c]pyrrolo[1,2-a][1,4]diazepin-12-yl)benzonitrile] | < 50
4 | CN(C)[C@@H]1CCN(c2ccc3c(c2)Cn2cc(-c4ccc(C#N)cc4)cc2-c2ncc(CN)n2-3)C1 [Compound 277, 4-(3-(aminomethyl)-7-((R)-3-(dimethylamino)pyrrolidin-1-yl)-9H-benzo[e]imidazo[2,1-c]pyrrolo[1,2-a][1,4]diazepin-12-yl)benzonitrile] | 50 to 100
5 | COCc1cnc2n1-c1ccc(N3CC[C@@H](N(C)C)C3)cc1Cn1cc(-c3ccc(C#N)cc3)cc1-2 [Compound 278, 4-(7-((R)-3-(dimethylamino)pyrrolidin-1-yl)-3-(methoxymethyl)-9H-benzo[e]imidazo[2,1-c]pyrrolo[1,2-a][1,4]diazepin-12-yl)benzonitrile] | < 50
6 | CNCC1CN(c2ccc3c(n2)Cn2cc(-c4ccc(C#N)cc4)cc2-c2nccn2-3)C1 [Compound 295, 4-(7-(3-((methylamino)methyl)azetidin-1-yl)-9H-imidazo[2,1-c]pyrido[3,2-e]pyrrolo[1,2-a] [1,4]diazepin-12-yl)benzonitrile] | < 50
7 | CN1CC2(CCN(c3ccc4c(n3)Cn3cc(-c5ccc(C#N)cc5)cc3-c3nccn3-4)C2)C1 [Compound 297, 4-(7-(2-methyl-2,6-diazaspiro[3.4]octan-6-yl)-9H-imidazo[2,1-c]pyrido[3,2-e]pyrrolo[1,2-a] [1,4]diazepin-12-yl)benzonitrile] | 50 to 100
8 | CN(C)C[C@H]1CN(c2ccc3c(n2)Cn2cc(-c4ccc(C#N)cc4)cc2-c2nccn2-3)C[C@H]1O [Compound 298, 4-(7-((3S,4S)-3-((dimethylamino)methyl)-4-hydroxypyrrolidin-1-yl)-9H-imidazo[2,1-c]pyrido[3,2-e]pyrrolo[1,2-a][1,4]diazepin-12-yl)benzonitrile] | < 50
9 | CN(C)C[C@@H]1CN(c2ccc3c(n2)Cn2cc(-c4ccc(C#N)cc4)cc2-c2nccn2-3)C[C@@H]1O [Compound 299, 4-(7-((3R,4R)-3-((dimethylamino)methyl)-4-hydroxypyrrolidin-1-yl)-9H-imidazo[2,1-c]pyrido[3,2-e]pyrrolo[1,2-a][1,4]diazepin-12-yl)benzonitrile] | < 50
10 | CN(C)[C@@H]1CN(c2ccc3c(n2)Cn2cc(-c4ccc(C#N)cc4)cc2-c2nccn2-3)C[C@H]1O [Compound 300, 4-(7-((3R,4R)-3-(dimethylamino)-4-hydroxypyrrolidin-1-yl)-9H-imidazo[2,1-c]pyrido[3,2-e]pyrrolo[1,2-a][1,4]diazepin-12-yl)benzonitrile] | < 50
11 | CN(C)[C@H]1CN(c2ccc3c(n2)Cn2cc(-c4ccc(C#N)cc4)cc2-c2nccn2-3)C[C@@H]1O [Compound 301, 4-(7-((3S,4S)-3-(dimethylamino)-4-hydroxypyrrolidin-1-yl)-9H-imidazo[2,1-c]pyrido[3,2-e]pyrrolo[1,2-a][1,4]diazepin-12-yl)benzonitrile] | 100 to 200
12 | CN(C)[C@H]1CN(c2ccc3c(n2)Cn2cc(-c4ccc(C#N)cc4)cc2-c2nccn2-3)C[C@H]1O [Compound 302, 4-(7-((3S,4R)-3-(dimethylamino)-4-hydroxypyrrolidin-1-yl)-9H-imidazo[2,1-c]pyrido[3,2-e]pyrrolo[1,2-a][1,4]diazepin-12-yl)benzonitrile] | 50 to 100
13 | CN(C)[C@@H]1CN(c2ccc3c(n2)Cn2cc(-c4ccc(C#N)cc4)cc2-c2nccn2-3)C[C@@H]1O [Compound 303, 4-(7-((3R,4S)-3-(dimethylamino)-4-hydroxypyrrolidin-1-yl)-9H-imidazo[2,1-c]pyrido[3,2-e]pyrrolo[1,2-a][1,4]diazepin-12-yl)benzonitrile] | 50 to 100
14 | CN(C)C[C@H]1CN(c2ccc3c(n2)Cn2cc(-c4ccc(C#N)cc4)cc2-c2nccn2-3)C[C@@H]1O [Compound 306, 4-(7-((3S,4R)-3-((dimethylamino)methyl)-4-hydroxypyrrolidin-1-yl)-9H-imidazo[2,1-c]pyrido[3,2-e]pyrrolo[1,2-a][1,4]diazepin-12-yl)benzonitrile] | < 50
15 | CN(C)C[C@@H]1CN(c2ccc3c(n2)Cn2cc(-c4ccc(C#N)cc4)cc2-c2nccn2-3)C[C@H]1O [Compound 307, 4-(7-((3R,4S)-3-((dimethylamino)methyl)-4-hydroxypyrrolidin-1-yl)-9H-imidazo[2,1-c]pyrido[3,2-e]pyrrolo[1,2-a][1,4]diazepin-12-yl)benzonitrile] | < 50
16 | N#Cc1ccc(-c2cc3n(c2)Cc2nc(N4CC[C@@H](CN5CCC(O)CC5)C4)ccc2-n2ccnc2-3)cc1 [Compound 308, (S)-4-(7-(3-((4-hydroxypiperidin-1-yl)methyl)pyrrolidin-1-yl)-9H-imidazo[2,1-c]pyrido[3,2-e]pyrrolo[1,2-a][1,4]diazepin-12-yl)benzonitrile] | < 50
17 | N#Cc1ccc(-c2cc3n(c2)Cc2nc(N4CCC5(CNC5)C4)ccc2-n2ccnc2-3)cc1 [Compound 310, 4-(7-(2,6-diazaspiro[3.4]octan-6-yl)-9H-imidazo[2,1-c]pyrido[3,2-e]pyrrolo[1,2-a][1,4]diazepin-12-yl)benzonitrile] | < 50

More lines, now with the values ahead:

Row | IC50 [nM] | Structure (SMILES)
18 | 100 to 200 | CNCC1CN(c2cc3c(cn2)-n2cnnc2-c2cc(-c4ccc(C#N)cc4)cn2C3)C1 [Compound 315, 4-(7-(3-((methylamino)methyl)azetidin-1-yl)-9H-pyrido[3,4-e]pyrrolo[1,2-a][1,2,4]triazolo[3,4-c][1,4]diazepin-12-yl)benzonitrile]
19 | 100 to 200 | CN(C)C[C@@H]1CCN(c2cc3c(cn2)-n2cnnc2-c2cc(-c4ccc(C#N)cc4)cn2C3)C1 [Compound 317, (S)-4-(7-(3-((dimethylamino)methyl)pyrrolidin-1-yl)-9H-pyrido[3,4-e]pyrrolo[1,2-a][1,2,4]triazolo[3,4-c][1,4]diazepin-12-yl)benzonitrile]
20 | 100 to 200 | N#Cc1ccc(-c2cc3n(c2)Cc2cc(N4CCC5(CNC5)C4)ncc2-n2cnnc2-3)cc1 [Compound 318, 4-(7-(2,6-diazaspiro[3.4]octan-6-yl)-9H-pyrido[3,4-e]pyrrolo[1,2-a][1,2,4]triazolo[3,4-c][1,4]diazepin-12-yl)benzonitrile]
21 | 50 to 100 | CN(C)[C@@H]1CCN(c2cc3c(cn2)-n2cnnc2-c2cc(-c4ccc(C#N)cc4)cn2C3)C1 [Compound 319, (R)-4-(7-(3-(dimethylamino)pyrrolidin-1-yl)-9H-pyrido[3,4-e]pyrrolo[1,2-a][1,2,4]triazolo[3,4-c][1,4]diazepin-12-yl)benzonitrile]
22 | 100 to 200 | CN(C)C1CCN(c2cc3c(cn2)-n2cnnc2-c2cc(-c4ccc(C#N)cc4)cn2C3)CC1 [Compound 321, 4-(7-(4-(dimethylamino)piperidin-1-yl)-9H-pyrido[3,4-e]pyrrolo[1,2-a][1,2,4]triazolo[3,4-c][1,4]diazepin-12-yl)benzonitrile]
23 | 100 to 200 | CN1CC2(CCN(c3cc4c(cn3)-n3ccnc3-c3cc(-c5ccc(C#N)cc5)cn3C4)C2)C1 [Compound 322, 4-(7-(2-methyl-2,6-diazaspiro[3.4]octan-6-yl)-9H-imidazo[2,1-c]pyrido[3,4-e]pyrrolo[1,2-a] [1,4]diazepin-12-yl)benzonitrile]
24 | 50 to 100 | N#Cc1ccc(-c2cc3n(c2)Cc2cc(N4CCC5(CNC5)C4)ncc2-n2ccnc2-3)cc1 [Compound 323, 4-(7-(2,6-diazaspiro[3.4]octan-6-yl)-9H-imidazo[2,1-c]pyrido[3,4-e]pyrrolo[1,2-a][1,4]diazepin-12-yl)benzonitrile]
25 | 50 to 100 | CNCC1CN(c2cc3c(cn2)-n2cnnc2-c2cc(-c4ccc(F)cc4)cn2C3)C1 [Compound 330, 1-(1-(12-(4-fluorophenyl)-9H-benzo[e]pyrrolo[1,2-a][1,2,4]triazolo[3,4-c][1,4]diazepin-7-yl)azetidin-3-yl)-N-methylmethanamine]
26 | < 50 | CN1CC2(CCN(c3ccc4c(c3)Cn3cc(-c5ccc(F)cc5)cc3-c3nncn3-4)C2)C1 [Compound 332, 12-(4-fluorophenyl)-7-(2-methyl-2,6-diazaspiro[3.4]octan-6-yl)-9H-benzo[e]pyrrolo[1,2-a] [1,2,4]triazolo[3,4-c][1,4]diazepine]
27 | < 50 | NC[C@H]1CCN(c2ccc3c(c2)Cn2cc(-c4ccc(F)cc4)cc2-c2nncn2-3)C1 [Compound 334, (R)-(1-(12-(4-fluorophenyl)-9H-benzo[e]pyrrolo[1,2-a][1,2,4]triazolo[3,4-c][1,4]diazepin-7-yl)pyrrolidin-3-yl)methanamine]
28 | < 50 | Fc1ccc(-c2cc3n(c2)Cc2cc(N4CCC5(CNC5)C4)ccc2-n2cnnc2-3)cc1 [Compound 336, 12-(4-fluorophenyl)-7-(2,6-diazaspiro[3.4]octan-6-yl)-9H-benzo[e]pyrrolo[1,2-a][1,2,4] triazolo[3,4-c][1,4]diazepine]
29 | < 50 | CNCC1CN(c2ccc3c(c2)Cn2cc(-c4ccc(F)cc4)cc2-c2nccn2-3)C1 [Compound 341, 1-(1-(12-(4-fluorophenyl)-9H-benzo[e]imidazo[2,1-c]pyrrolo[1,2-a][1,4]diazepin-7-yl)azetidin-3-yl)-N-methylmethanamine]
